According to ChEMBL document CHEMBL4425082, “Antimalarial Chemotherapy: Natural Product Inspired Development of Preclinical and Clinical Candidates with Diverse Mechanisms of Action” (J Med Chem, 2016):

Tests used:
[1] = Inhibition of Plasmodium falciparum NDH2 expressed in HEK293 cells by spectrophotometric analysis; type: cell-based
[2] = Inhibition of Plasmodium falciparum cytochrome bc1 expressed in HEK293 cells by spectrophotometric analysis; type: cell-based
Plasmodium berghei [3] = test: Antimalarial activity against blood stage Plasmodium berghei infected in mouse administered qd through oral gavage for 4 days; conditions: 96 h
Plasmodium yoelii = test: Antimalarial activity against blood stage Plasmodium yoelii infected in mouse administered qd through oral gavage for 4 days; type: functional; conditions: 96 h
Plasmodium falciparum [4] = test: Antimalarial activity against atovaquone-resistant Plasmodium falciparum TM90C2B; type: functional, organism-based
Plasmodium falciparum [5] = test: Antimalarial activity against Plasmodium falciparum 3D7; type: functional, organism-based
Plasmodium berghei [6] = test: Antimalarial activity against Plasmodium berghei infected in po dosed mouse erythrocyte administered qd for 8 days by Giemsa staining based microscopic analysis; type: functional; conditions: 192 h
[7] = Therapeutic index, ratio of IC50 for mouse J774 cells to IC50 chloroquine-resistant Plasmodium falciparum W2; type: toxicity; conditions: read-out: Ratio IC50
[8] = Therapeutic index, ratio of IC50 for mouse/rat NG108 cells to IC50 chloroquine-resistant Plasmodium falciparum W2; type: toxicity; conditions: read-out: Ratio IC50
Plasmodium falciparum [9] = test: Antimalarial activity against chloroquine-resistant Plasmodium falciparum W2 by [3H]-hypoxanthine incorporation assay; type: functional, organism-based
[10] = Oral bioavailability in rat at 3 mg/kg; type: ADME, organism-based; conditions: in vivo
[11] = Half life in human; type: ADME
Plasmodium falciparum [12] = test: Antimalarial activity against Plasmodium falciparum FCR 3TC after 48 hrs; type: functional, organism-based
Plasmodium falciparum [13] = test: Antimalarial activity against Plasmodium falciparum W2 after 48 hrs; type: functional, organism-based; conditions: W2, 48 h
Plasmodium falciparum [14] = test: Antimalarial activity against Plasmodium falciparum 3D7 after 48 hrs; type: functional, organism-based; conditions: 3D7, 48 h
Plasmodium falciparum [15] = test: Antimalarial activity against Plasmodium falciparum 3D7 after 96 hrs; type: functional, organism-based; conditions: 3D7, 96 h
Plasmodium vinckei [16] = test: Antimalarial activity against Plasmodium vinckei infected in ip dosed mouse assessed as reduction in parasitemia administered tid by 4-day suppression test; type: functional; conditions: 96 h
Plasmodium falciparum [17] = test: Antimalarial activity against Plasmodium falciparum Dd2 assessed as reduction in parasite viability by [3H]-hypoxanthine incorporation assay; type: functional, organism-based
Plasmodium vinckei [18] = test: Antimalarial activity against Plasmodium vinckei infected in po dosed mouse assessed as reduction in parasitemia administered tid by 4-day suppression test; type: functional; conditions: 96 h
[19] = Oral bioavailability in rat; type: ADME, organism-based; conditions: in vivo
Plasmodium berghei [20] = test: Antimalarial activity against GFP-transfected Plasmodium berghei ANKA infected in mouse assessed as reduction in parasitemia at 30 mg/kg, po administered on day 1 post infection measured on day 3 post infection; type: functional; set-up: scale not given: the % may be the effect or the level left

Cc1c(-c2ccc(-c3ccc(OC(F)(F)F)cc3)nc2)[nH]c2ccccc2c1=O
IC50 [1]: 14 nM | IC50 [2]: 15 nM | ED50 (Plasmodium berghei [3]): 1.8 mg/kg | ED90 (Plasmodium berghei [3]): 4.7 mg/kg

COc1cc2[nH]c(C)c(-c3ccc(Oc4ccc(OC(F)(F)F)cc4)cc3)c(=O)c2cc1Cl
ED50 (Plasmodium yoelii): 0.1 mg/kg | ED90 (Plasmodium yoelii): 0.15 mg/kg | IC50 (Plasmodium falciparum [4]): 3 nM | IC50 (Plasmodium falciparum [5]): 5 nM

O=C(C[C@H]1NCCC[C@@H]1O)Cn1cnc2ccccc2c1=O
ED50 (Plasmodium berghei [6]): 2.3 mg/kg | selectivity ratio [7]: 3 | selectivity ratio [8]: 3 | IC50 (Plasmodium falciparum [9]): 2.5 nM

c1cc([C@H]2CC[C@]3(CC2)OO[C@]2(O3)C3CC4CC(C3)CC2C4)ccc1OCCN1CCOCC1 [ARTEFENOMEL]
bioavailability [10]: 76%

O=C1C(O)=C([C@H]2CC[C@H](c3ccc(Cl)cc3)CC2)C(=O)c2ccccc21 [ATOVAQUONE]
IC50 [1]: > 10000 nM | IC50 [2]: 2 nM | ED50 (Plasmodium yoelii): 0.02 mg/kg | ED90 (Plasmodium yoelii): 0.04 mg/kg | IC50 (Plasmodium falciparum [4]): > 10000 nM | IC50 (Plasmodium falciparum [5]): 0.4 nM

CC[C@H]1OC(=O)[C@H](C)[C@@H](O[C@H]2C[C@@](C)(OC)[C@@H](O)[C@H](C)O2)[C@H](C)[C@@H](O[C@@H]2O[C@H](C)C[C@H](N(C)C)[C@H]2O)[C@](C)(O)C[C@@H](C)CN(C)[C@H](C)[C@@H](O)[C@]1(C)O [AZITHROMYCIN]
half-life [11]: 74 h | IC50 (Plasmodium falciparum [12]): 6500 nM

CCC[C@@H]1C[C@@H](C(=O)N[C@@H]([C@H]2O[C@H](SC)[C@H](O)[C@@H](O)[C@H]2O)[C@H](C)Cl)N(C)C1 [CLINDAMYCIN]
IC50 (Plasmodium falciparum [13]): > 10000 nM | IC50 (Plasmodium falciparum [14]): > 10000 nM | IC50 (Plasmodium falciparum [15]): 450 nM

CC[C@H]1OC(=O)[C@H](C)[C@@H](O[C@H]2C[C@@](C)(OC)[C@@H](O)[C@H](C)O2)[C@H](C)[C@@H](O[C@@H]2O[C@H](C)C[C@H](N(C)C)[C@H]2O)[C@](C)(O)C[C@@H](C)C(=O)[C@H](C)[C@@H](O)[C@]1(C)O [ERYTHROMYCIN]
IC50 (Plasmodium falciparum [12]): 68000 nM

O=CN(O)CCCP(=O)(O)O [FOSMIDOMYCIN]
ED90 (Plasmodium vinckei [16]): 5 mg/kg | IC50 (Plasmodium falciparum [17]): 290 nM | ED90 (Plasmodium vinckei [18]): 20 mg/kg | bioavailability [19]: 30%

CC(=O)N(O)CCCP(=O)(O)O [FR-900098]
IC50 (Plasmodium falciparum [17]): 90 nM

CC(C)(N)CNC(=O)C[C@H]1CC[C@]2(CC1)OO[C@]1(O2)C2CC3CC(C2)CC1C3 [OZ277]
bioavailability [10]: 13% | Activity (Plasmodium berghei [20]): 99%
